This is an account of results in patent US5578634A, “1H-indole-3-acetic acid hydrazide sPLA2 inhibitors” (Eli Lilly and Company, priority 1995, dated 1996).

The target in test [1] is T1, human secreted PLA2 (Homo sapiens, UniProt P14555).
T1 sequence (P14555 21-144): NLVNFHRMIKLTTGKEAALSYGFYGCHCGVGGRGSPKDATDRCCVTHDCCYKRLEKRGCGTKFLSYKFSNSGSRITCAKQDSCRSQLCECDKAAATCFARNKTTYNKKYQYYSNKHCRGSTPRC
Briefly: chromogenic assay of recombinant human secreted phospholipase A2 inhibition (Assay Example 1). The format is biochemical. The conditions noted are these: mean of 3-5 tests; 40° C., 30 minutes, pH 7.5, 405 nanometers; read-out: Inhibition of human secreted PLA2 IC50 ± mean deviation (3-5 tests). An excerpt:
The assay described herein has been adapted for high volume screening using 96 well microtiter plates. A general description of this assay method is found in the article, "Analysis of Human Synovial Fluid Phospholipase A2 on Short Chain Phosphatidylcholine-Mixed Micelles: Development of a Spectrophotometric Assay Suitable for a Microtiterplate Reader", by Laure J. Reynolds, Lori L. […] Reagents, the disclosure of which is incorporated herein by reference. REACTION BUFFER CaCl2.2H20 (1.47 g/L) KCl (7.455 g/L) Bovine Serum Albumin (fatty acid free) (1 g/L) (Sigma A-7030, product of Sigma Chemical Co. St. Louis Mo., USA) TRIS HCl (3.94 g/L) pH 7.5 (adjust with NaOH) ENZYME BUFFER […] 0.2 NaCl Adjust pH to 4.5 with acetic acid DTNB […] RACEMIC DIHEPTANOYL THIO - PC […] TRITON X-100™ prepare at 6.249 mg/ml in reaction buffer to equal […]. REACTION MIXTURE A measured volume of racemic dipheptanoyl thio PC supplied in chloroform at a concentration of 100 mg/ml is taken to dryness and redissolved in 10 millimolar TRITON X-100™ nonionic detergent aqueous solution. Reaction Buffer is added to the solution, then DTNB to give the Reaction Mixture. The reaction mixture thus obtained contains 1 mM diheptanoly thio-PC substrate, 0.29 mM Triton X-100™ detergent, and 0.12 mM DTMB in a buffered aqueous solution at pH 7.5. Assay Procedure: 1. Add 0.2 ml reaction mixture to all wells; 2. Add 10 ul test compound (or solvent blank) to appropriate wells, mix 20 seconds; 3. Add 50 nanograms of sPLA2 (10 microliters) to appropriate wells; 4. Incubate plate at 40° C. for 30 minutes; […] Read absorbance of wells at 405 nanometers with an automatic plate reader. All compounds were tested in triplicate. Typically, compounds were tested at a final concentration of 5 ug/ml. […] Lack of color development at 405 nanometers evidenced inhibition. Compounds initially found to be active were reassayed to confirm their activity and, if sufficiently active, IC50 values were determined. […] In all cases, % inhibition measured at 405 nanometers generated by enzyme reactions containing inhibitors relative to the uninhibited control reactions was determined. Each sample was titrated in triplicate and result values were averaged for plotting and calculation of IC50 values. […] IC50 values were determined at least three times for each compound tested.

The target in test [2] is T2, sPLA2 contraction (Homo sapiens, UniProt P14555).
T2 sequence (P14555 21-144): T1 sequence (P14555 21-144)
Briefly: sPLA2-induced contraction of guinea pig lung pleural strips, tissue test (Assay Example 2). Further details: species or system Male Hartley strain guinea pigs; key to transient contraction of tissue during test: *: indicates transient contraction of tissue during test. The conditions noted are these: for inhibition at 30 µM / inhibition at 10 µM: guinea pig, sPLA2 10 ug/ml; for inhibition at 30 µM: compound concentration 30 uM, read-out: % suppression of sPLA2 contraction at 30 uM; for transient contraction of tissue during test: footnote * of Table 2; for inhibition at 10 µM: compound concentration 10 uM, read-out: % suppression of sPLA2 contraction at 10 uM. An excerpt: Male Hartley strain guinea pigs (500-700 g) were killed by cervical dislocation and their heart and lungs removed intact and placed in aerated (95% O2 :5% CO2) Krebs buffer. Dorsal pleural strips (4×1×25 mm) were dissected from intact parenchymal segments (8×4×25 mm) cut parallel to the outer edge of the lower lung lobes. Two adjacent pleural strips, obtained from a single lobe and representing a single tissue sample, were tied at either end and independently attached to a metal support rod. One rod was attached to a Grass force-displacement transducer (Model FTO3C, product of Grass Medical Instruments Co., Quincy, Mass., USA). […] All tissues were placed in 10 ml jacketed tissue baths maintained at 37° C. The tissue baths were continuously aerated and contained a modified Krebs solution of the following composition (millimolar) NaCl, 118.2; KCl, 4.6; CaCl2.2H2 O, 2.5; MgSO4.7H2 O, 1.2; NaHCO3, 24.8; KH2 PO4, 1.0; and dextrose, 10.0. Pleural strips from the opposite lobes of the lung were used for paired experiments. […] The tissues were allowed to equilibrate for 45 min. as the bath fluid was changed periodically. Cumulative concentration-response curves: Initially tissues were challenged 3 times with KCl (40 mM) to test tissue viability and to obtain a consistent response. After recording the maximal response to KCl the tissues were washed and allowed to return to baseline before the next challenge. Cumulative concentration-response curves were obtained from pleural strips by increasing the agonist concentration (sPLA2) in the tissue bath by half-log10 increments while the previous concentration remained in contact with the tissues (Ref.1, supra.) Agonist concentration was increased after reaching the plateau of the contraction elicited by the preceding concentration. One concentration-response curve was obtained from each tissue. To minimize variability between tissues obtained from different animals, contractile responses were expressed as a percentage of the maximal response obtained with the final KCl challenge. When studying the effects of various drugs on the contractile effects of sPLA2, the compounds and their respective vehicles were added to the tissues 30 min. prior to starting the sPLA2 concentration-response curves. statistical analysis: Data from different experiments were pooled and presented as a percentage of the maximal KCl responses (mean±S.E.). To estimate the drug induced rightward shifts in the concentration response curves, the curves were analyzed simultaneously using statistical nonlinear modeling methods similar to those described by Waud (1976), Equation 26, p. 163, (Ref.2). The model includes four parameters: the maximum tissue response which was assumed the same for each curve, the ED50 for the control curve, the steepness of the curves, and the PA2, the concentration of antagonist that requires a two-fold increase in agonist to achieve an equivalent response. The Schild slope was determined to be 1, using statistical nonlinear modeling methods similar to those described by Waud (1976), Equation 27, p. 164 (Ref. 2). […] To estimate the drug-induced suppression of the maximal responses, sPLA2 responses (10 ug/ml) were determined in the absence and presence of drug, and percent suppression was calculated for each pair of tissues. Ref. 1--van Rossum, J. M.: Cumulative dose-response curves. II. Technique for the making of dose-response curves in isolated organs and the evaluation of drug parameters. Arch. Int. Pharmacodyn. Ther. 143: 299-330, 1963. Ref. 2--Waud, D.: Analysis of dose-response relationships. in Advances in General and Cellular Pharmacology […]

As to `COc1ccc2c(c1)c(CC(=O)NN)c(C)n2Cc1ccccc1-c1ccccc1` [Example 24, 1-([1,1'-Biphenyl]-2-ylmethyl)-5-methoxy-2-methyl-1H-indole-3-acetic acid hydrazide], the half-inhibitory concentration (IC50) (usually the concentration that gives 50% inhibition) in test [1] is 260 ± 80 nM. Also, the inhibition at 30 µM in test [2] was -4.2 ± 6.2%.
For the compound `COc1ccc2c(c1)c(CC(=O)NN)c(Br)n2Cc1ccccc1` [Example 44, 2-Bromo-5-methoxy-1-(phenylmethyl)-1H-indole-3-acetic acid hydrazide], the half-maximal inhibitory concentration (IC50) in test [1] came to 430 ± 30 nM. For the same compound, the inhibition at 30 µM in test [2] came to 87.4 ± 9.3%.
For the compound `COc1ccc2c(c1)c(CC(=O)NN)c(Cl)n2Cc1ccccc1` [Example 43, 2-Chloro-5-methoxy-1-(phenylmethyl)-1H-indole-3-acetic acid hydrazide], the 50% inhibitory concentration (IC50) in test [1] is 390 ± 30 nM. In test [2], the inhibition at 30 µM stood at 91.3 ± 6%.
Turning to `COc1ccc2c(c1)c(CC(=O)NN)c(C)n2Cc1cccc(Cl)c1` [Example 18, 1-(3-Chlorophenylmethyl)-5-methoxy-2-methyl-1H-indole-3-acetic acid hydrazide], the IC50 in test [1] worked out at 1020 ± 180 nM. Further, in test [2], the “transient contraction of tissue during test” value is given as “*”, the inhibition at 10 µM worked out at 70.7 ± 6.4% and the inhibition at 30 µM worked out at 98 ± 1.5%.
For the compound `COc1ccc2c(c1)c(CC(=O)NN)c(C)n2Cc1cccc(OCc2ccccc2)c1` [Example 30, 1-[(3-Benzyloxyphenyl)methyl]-5-methoxy-2-methyl-1H-indole-3-acetic acid hydrazide], in test [1], the concentration for half-maximal inhibition (IC50) was 610 ± 220 nM. In test [2], the inhibition at 10 µM came to 21.4% and the inhibition at 30 µM was found to be 60.9 ± 9.7%.
As to `Cc1c(CC(=O)NN)c2cc(C(=O)NN)ccc2n1Cc1ccccc1` [Example 70, 5-Hydrazinocarbonyl-2-methyl-1-(phenylmethyl)-1H-indole-3-acetic acid hydrazide], the IC50 in test [1] worked out at 2470 ± 640 nM. Besides, the inhibition at 30 µM in test [2] is 45.1 ± 6.8%.
On to `Cc1c(CC(=O)NN)c2ccc(-c3ccccc3)cc2n1Cc1ccccc1` [Example 57, 2-Methyl-6-phenyl-1-(phenylmethyl)-1H-indole-3-acetic acid hydrazide], for which the half-maximal inhibitory concentration (IC50) in test [1] was 930 ± 550 nM. Besides, the inhibition at 30 µM in test [2] is 66.3 ± 5.9%.
For the compound `COc1ccc2c(c1)c(CC(=O)NN)c(C)n2Cc1cccc(O)c1` [Example 31, 1-[(3-Hydroxyphenyl)methyl]-5-methoxy-2-methyl-1H-indole-3-acetic acid hydrazide], the 50% inhibitory concentration (IC50) in test [1] is 3000 ± 1400 nM. The inhibition at 30 µM in test [2] stood at 47.5 ± 13.4%.
For `CCc1c(CC(=O)NN)c2cc(OC)ccc2n1Cc1ccccc1-c1ccccc1` [Example 4, 1-([1,1'-biphenyl]-2-ylmethyl)-2-ethyl-5-methoxy-1H-indole-3-acetic acid hydrazide], in that order: 5170 ± 6710 nM and 11 ± 10.3%.
As to `CCc1c(CC(=O)NN)c2cc(OC)ccc2n1Cc1ccccc1` [Example 3, 2-Ethyl-5-methoxy-1-(phenylmethyl)-1H-indole-3-acetic acid hydrazide], in test [1], the IC50 stood at 420 ± 190 nM. Also, in test [2], the “transient contraction of tissue during test” value is listed as “*” and the inhibition at 30 µM is 77.9 ± 4.2%.
Consider `CCc1c(CC(=O)NN)c2cc(OC3CCCC3)ccc2n1Cc1ccccc1` [Example 2, 5-Cyclopentoxy-2-ethyl-1-(phenylmethyl)-1H-indole-3-acetic acid hydrazide], for which, in test [1], the IC50 worked out at 470 ± 150 nM. Further, in test [2], the inhibition at 30 µM amounted to 60.5 ± 12.8%.
On to `COc1ccc2c(c1)c(CC(=O)NN)c(C)n2Cc1ccccc1` [Example 16, 5-Methoxy-2-methyl-1-(phenylmethyl)-1H-indole-3-acetic acid hydrazide], for which, in test [1], the IC50 was determined as 860 ± 120 nM. Also, in test [2], the inhibition at 10 µM stood at 55.2 ± 6.6% and the inhibition at 30 µM amounted to 83.9 ± 3.2%.
As to `Cc1c(CC(=O)NN)c2cc(C(=O)O)ccc2n1Cc1cccc(Cl)c1` [Example 68, 5-Carboxy-1-[(3-chlorophenyl)methyl]-2-methyl-1H-indole-3-acetic acid hydrazide], the IC50 in test [1] was 360 ± 30 nM. In test [2], the inhibition at 10 µM was determined as 41.2 ± 3.8% and the inhibition at 30 µM was determined as 48 ± 7%.
`Cc1c(CC(=O)NN)c2cc(Br)ccc2n1Cc1cccc(OCc2ccccc2)c1` [Example 52, 1-[(3-Benzyloxyphenyl)methyl]-5-bromo-2-methyl-1H-indole-3-acetic acid hydrazide]: the IC50 in test [1] turned out to be 710 ± 340 nM. In test [2], the inhibition at 10 µM was determined as 37.8 ± 15.5% and the inhibition at 30 µM is 29.1 ± 7%.
As to `COc1ccc2c(c1)c(CC(=O)NN)c(C)n2Cc1cccc(-c2ccccc2)c1` [Example 25, 1-([1,1'-Biphenyl]-3-ylmethyl)-5-methoxy-2-methyl-1H-indole-3-acetic acid hydrazide], the concentration for half-maximal inhibition (IC50) in test [1] amounted to 940 ± 330 nM. In addition, the inhibition at 30 µM in test [2] is 7.3 ± 9.9%.
